Assay type in all cases: biochemical
For one assay, the target named is T1, JAK3 (Homo sapiens, UniProt P52333).
T1 construct: purchased Invitrogen Corporation, Madison, Wis; PV3855
T1 sequence (P52333 1-1124): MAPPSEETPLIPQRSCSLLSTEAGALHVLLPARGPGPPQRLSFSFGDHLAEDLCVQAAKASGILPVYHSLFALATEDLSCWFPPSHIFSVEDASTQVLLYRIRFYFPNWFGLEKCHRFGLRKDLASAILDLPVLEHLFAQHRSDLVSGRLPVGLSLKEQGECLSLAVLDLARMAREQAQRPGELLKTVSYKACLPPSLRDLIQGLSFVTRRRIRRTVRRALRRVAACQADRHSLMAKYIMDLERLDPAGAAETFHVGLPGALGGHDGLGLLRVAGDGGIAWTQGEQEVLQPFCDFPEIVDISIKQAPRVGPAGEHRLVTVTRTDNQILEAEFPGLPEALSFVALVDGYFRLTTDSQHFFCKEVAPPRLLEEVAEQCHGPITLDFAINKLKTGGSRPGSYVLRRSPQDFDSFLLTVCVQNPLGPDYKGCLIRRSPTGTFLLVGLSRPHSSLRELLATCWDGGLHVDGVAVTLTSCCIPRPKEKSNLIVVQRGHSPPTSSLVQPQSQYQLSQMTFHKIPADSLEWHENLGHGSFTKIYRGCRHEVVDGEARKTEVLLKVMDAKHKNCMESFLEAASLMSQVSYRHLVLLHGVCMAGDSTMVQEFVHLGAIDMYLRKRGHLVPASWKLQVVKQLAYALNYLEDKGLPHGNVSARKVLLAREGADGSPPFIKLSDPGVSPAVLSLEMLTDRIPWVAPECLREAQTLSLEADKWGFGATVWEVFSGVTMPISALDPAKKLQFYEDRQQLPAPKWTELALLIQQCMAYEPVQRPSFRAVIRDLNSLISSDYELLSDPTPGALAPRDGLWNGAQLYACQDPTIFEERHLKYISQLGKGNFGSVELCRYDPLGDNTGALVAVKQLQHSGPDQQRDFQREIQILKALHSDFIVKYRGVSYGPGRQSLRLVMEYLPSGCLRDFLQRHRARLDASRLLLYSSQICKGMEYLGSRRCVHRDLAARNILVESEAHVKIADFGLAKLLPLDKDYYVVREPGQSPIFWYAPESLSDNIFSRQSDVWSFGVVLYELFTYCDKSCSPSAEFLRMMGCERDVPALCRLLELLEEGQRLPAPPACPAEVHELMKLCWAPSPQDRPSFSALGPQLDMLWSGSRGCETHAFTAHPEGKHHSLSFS
As to the kind of experiment: JAK enzymatic assay (peptide mobility shift), JAK3. The settings on record: recombinant JAK3 1 nM, ATP 4 μM, 1 μM JAKtide peptide, 90 minutes. The source says: Recombinant JAK1 (Catalog Number PV4775), JAK2 (Catalog Number PV4210) and JAK3 (Catalog Number PV3855) were purchased from (Invitrogen Corporation, Madison, Wis.). Tyk2 (His-Tyk2 (888-1182, C936S, C1142S)) used in this study was expressed and purified at Pfizer Laboratories. Adenosine 5′-triphosphate (ATP) was obtained from (Sigma Chemical Company, St. Louis, Mo.). […] Coating Reagent 3 was purchased from (Caliper Life Sciences, Hopkinton, Mass.).
(§1) A peptide mobility shift assay was used to quantify the phosphorylation of the JAKtide (JAK2 and JAK3) or the IRS-1 peptide ([…] and Tyk2). Reactions were carried out in a 384-well plate (Matrical MP-101) in a 10 μL total volume. Reaction mixtures contained 20 mM HEPES, pH 7.4, 10 mM magnesium chloride, 0.01% bovine serum albumin (BSA), 0.0005% Tween-20, ATP (4 μM for JAK2 and JAK3, 40 μM for JAK1 and 7 μM for Tyk2)), 2% DMSO and 1 μM peptide substrate (JAKtide for JAK2 and JAK3 and IRS-1 peptide for JAK1 and Tyk2). Compounds were diluted serially in 100% dimethyl sulfoxide and tested in an 11 point dose response in duplicate or quadruplicate (200 nl of compound/DMSO was added per 10 μL reaction). The reactions were initiated by the addition of enzyme to the final concentration of 2 nM JAK2, 1 nM JAK3, 12 nM Tyk2 or 20 nM JAK1. The assay was run for 240 minutes for JAK1, 150 minutes for JAK2, 90 minutes for JAK3 and 70 minutes for Tyk2. The assays were stopped at the specified times with 20 uL of 140 mM HEPES, 22.5 mM EDTA and 0.15% Coating Reagent 3. The plates were placed on a LabChip 3000 (LC3000) instrument from (Caliper Life Sciences) to measure the formation of phosphorylated peptide. Data was analyzed using Hits Well Analyzer Software from (Caliper Life Sciences) to obtain the amount of product formed.
(§2) Data was then imported into an internal application where each data point is expressed as % inhibition based on uninhibited and no enzyme controls. Dose-response data is then fit using a 4 parameter logistic equation (Equation 1) to determine an IC50.
(§3) Where max is the fitted uninhibited value, min is the fitted complete inhibition value, and s is the slope factor.

In the next assay the target is T2, JAK2 (Homo sapiens, UniProt O60674).
T2 construct: purchased Invitrogen Corporation, Madison, Wis; PV4210
T2 sequence (O60674 whole entry): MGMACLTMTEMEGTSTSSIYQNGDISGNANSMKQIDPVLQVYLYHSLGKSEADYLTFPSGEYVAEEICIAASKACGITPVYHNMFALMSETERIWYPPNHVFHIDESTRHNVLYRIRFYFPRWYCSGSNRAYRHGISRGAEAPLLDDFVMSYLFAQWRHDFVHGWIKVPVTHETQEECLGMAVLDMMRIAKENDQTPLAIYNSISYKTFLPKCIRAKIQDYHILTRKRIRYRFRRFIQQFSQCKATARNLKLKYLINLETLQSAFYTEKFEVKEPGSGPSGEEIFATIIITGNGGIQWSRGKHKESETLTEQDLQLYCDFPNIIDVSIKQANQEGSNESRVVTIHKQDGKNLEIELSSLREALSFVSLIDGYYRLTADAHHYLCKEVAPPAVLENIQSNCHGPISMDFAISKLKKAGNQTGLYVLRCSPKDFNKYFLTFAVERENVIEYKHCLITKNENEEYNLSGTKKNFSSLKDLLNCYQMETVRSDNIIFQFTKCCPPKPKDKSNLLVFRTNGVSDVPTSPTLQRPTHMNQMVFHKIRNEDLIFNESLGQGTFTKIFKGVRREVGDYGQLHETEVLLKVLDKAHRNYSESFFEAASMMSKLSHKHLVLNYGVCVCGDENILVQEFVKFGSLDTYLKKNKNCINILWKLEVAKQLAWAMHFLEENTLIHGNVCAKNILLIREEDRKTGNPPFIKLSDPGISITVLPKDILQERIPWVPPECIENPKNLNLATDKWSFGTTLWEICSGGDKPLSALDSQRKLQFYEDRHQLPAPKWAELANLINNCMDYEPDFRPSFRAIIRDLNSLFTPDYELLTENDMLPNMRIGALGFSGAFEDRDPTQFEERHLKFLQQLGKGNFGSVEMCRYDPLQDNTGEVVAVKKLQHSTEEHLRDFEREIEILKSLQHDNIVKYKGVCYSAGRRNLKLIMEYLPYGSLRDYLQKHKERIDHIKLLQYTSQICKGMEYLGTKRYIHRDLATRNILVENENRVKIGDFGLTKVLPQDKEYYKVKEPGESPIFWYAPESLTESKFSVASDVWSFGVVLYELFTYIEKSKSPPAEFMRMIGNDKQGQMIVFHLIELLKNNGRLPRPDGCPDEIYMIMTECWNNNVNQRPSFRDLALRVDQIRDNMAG
As to the kind of experiment: JAK enzymatic assay (peptide mobility shift), JAK2. The settings on record: recombinant JAK2 2 nM, ATP 4 μM, 1 μM JAKtide peptide, 150 minutes.
From the text: (§4) Recombinant JAK1 (Catalog Number PV4775), JAK2 (Catalog Number PV4210) and JAK3 (Catalog Number PV3855) were purchased from (Invitrogen Corporation, Madison, Wis.). Tyk2 (His-Tyk2 (888-1182, C936S, C1142S)) used in this study was expressed and purified at Pfizer Laboratories. Adenosine 5′-triphosphate (ATP) was obtained from (Sigma Chemical Company, St. Louis, Mo.). The JAKtide peptide (peptide sequence, FITC-[…]) used for the JAK2 and JAK3 assays and the IRS-1 peptide (peptide sequence, 5-FAM-[…]) used for the JAK1 and Tyk2 assays were purchased from (American Peptide Company, Sunnyvale, Calif.). Coating Reagent 3 was purchased from (Caliper Life Sciences, Hopkinton, Mass.).
as §1, §2, §3

The target of the next assay is T3, JAK1 (Homo sapiens, UniProt P23458).
T3 construct: purchased Invitrogen Corporation, Madison, Wis; PV4775
T3 sequence (P23458 whole entry): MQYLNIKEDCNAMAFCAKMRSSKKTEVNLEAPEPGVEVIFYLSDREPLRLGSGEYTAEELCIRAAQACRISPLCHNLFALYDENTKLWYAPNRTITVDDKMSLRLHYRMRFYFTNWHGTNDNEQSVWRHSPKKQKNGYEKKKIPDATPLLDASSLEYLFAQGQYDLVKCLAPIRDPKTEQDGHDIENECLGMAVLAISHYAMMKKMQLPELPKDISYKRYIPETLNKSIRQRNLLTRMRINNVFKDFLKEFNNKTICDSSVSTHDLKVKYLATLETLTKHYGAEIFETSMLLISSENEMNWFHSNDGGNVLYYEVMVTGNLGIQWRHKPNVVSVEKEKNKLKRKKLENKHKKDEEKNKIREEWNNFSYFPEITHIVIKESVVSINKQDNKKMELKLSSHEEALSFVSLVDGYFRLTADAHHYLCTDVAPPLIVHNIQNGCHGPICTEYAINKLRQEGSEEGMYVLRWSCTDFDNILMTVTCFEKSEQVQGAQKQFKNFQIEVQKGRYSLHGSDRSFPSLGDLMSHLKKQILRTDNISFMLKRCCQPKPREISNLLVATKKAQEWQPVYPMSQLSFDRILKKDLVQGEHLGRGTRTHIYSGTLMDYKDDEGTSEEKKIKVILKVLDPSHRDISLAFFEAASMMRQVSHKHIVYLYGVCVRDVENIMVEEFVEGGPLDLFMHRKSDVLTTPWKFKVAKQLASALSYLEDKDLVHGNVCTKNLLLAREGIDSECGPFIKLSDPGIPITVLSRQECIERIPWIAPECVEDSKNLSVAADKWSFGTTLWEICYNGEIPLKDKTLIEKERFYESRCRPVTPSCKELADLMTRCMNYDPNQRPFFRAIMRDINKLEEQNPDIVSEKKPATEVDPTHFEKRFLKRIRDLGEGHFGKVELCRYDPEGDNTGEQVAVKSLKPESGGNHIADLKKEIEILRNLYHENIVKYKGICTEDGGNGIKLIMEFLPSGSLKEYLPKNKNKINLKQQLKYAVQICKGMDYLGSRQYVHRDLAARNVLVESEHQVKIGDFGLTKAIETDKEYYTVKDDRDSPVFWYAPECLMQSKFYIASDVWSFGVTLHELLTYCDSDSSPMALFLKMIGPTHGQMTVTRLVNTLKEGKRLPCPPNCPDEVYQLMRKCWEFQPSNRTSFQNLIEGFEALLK
As to the kind of experiment: JAK enzymatic assay (peptide mobility shift), JAK1. The settings on record: recombinant JAK1 20 nM, ATP 40 μM, 1 μM IRS-1 peptide, 240 minutes.
From the text: as §4, §1, §2, §3

SMILES strings stand for the structures.

This is an account of results in US8372854B2, “Pyrrolo[2,3-D]pyrimidine compounds” (Pfizer Inc., priority 2009, dated 2013).

By IC50 is commonly meant the concentration that gives 50% inhibition.

Take `Cc1ccc(NS(=O)(=O)C[C@H]2CC[C@H](N(C)c3ncnc4[nH]ccc34)CC2)cn1` [Example 30, N-(6-methylpyridin-3-yl)-1-{trans-4-[methyl(7H-pyrrolo[2,3-d]pyrimidin-4-yl)amino]cyclohexyl}-methanesulfonamide]: the concentration for half-maximal inhibition (IC50) came out at 221 nM on JAK3, 47.6 nM on JAK2 and 16.5 nM at JAK1.
For `CN(c1ncnc2[nH]ccc12)[C@H]1CC[C@H](CS(=O)(=O)NCCc2ccc(Cl)cc2)CC1` [Example 31, N-[2-(4-chlorophenyl)ethyl]-1-{trans-4-[methyl(7H-pyrrolo[2,3-d]pyrimidin-4-yl)amino]cyclohexyl}-methanesulfonamide] the same measures were 154 nM, 19 nM and 3.67 nM.
For `CN(c1ncnc2[nH]ccc12)[C@H]1CC[C@H](CS(=O)(=O)N[C@H]2C[C@@H]2c2ccccc2)CC1` [Example 32, 1-{trans-4-[methyl(7H-pyrrolo[2,3-d]pyrimidin-4-yl)amino]cyclohexyl}-N-[(1S,2R)-2-phenylcyclopropyl]-methanesulfonamide] the same measures were 144 nM, 23.6 nM and 4.34 nM.
For `CN(c1ncnc2[nH]ccc12)[C@H]1CC[C@H](CS(=O)(=O)NCCc2cccc(F)c2)CC1` [Example 33, N-[2-(3-fluorophenyl)ethyl]-1-{trans-4-[methyl(7H-pyrrolo[2,3-d]pyrimidin-4-yl)amino]cyclohexyl}-methanesulfonamide] the same measures were 192 nM, 24.2 nM and 4.95 nM.
On to `Cc1cc2cc(CNS(=O)(=O)C[C@H]3CC[C@H](N(C)c4ncnc5[nH]ccc45)CC3)ccc2[nH]1` [Example 34, N-[(2-methyl-1H-indol-5-yl)methyl]-1-{trans-4-[methyl(7H-pyrrolo[2,3-d]-pyrimidin-4-yl)amino]-cyclohexyl}-methanesulfonamide], for which the IC50 at JAK3 was found to be 224 nM; at JAK2, 24.7 nM; on JAK1, 6.76 nM.
In the same order, the values of `CN(Cc1cccnc1)S(=O)(=O)C[C@H]1CC[C@H](N(C)c2ncnc3[nH]ccc23)CC1` [Example 35, N-methyl-1-{trans-4-[methyl(7H-pyrrolo[2,3-d]-pyrimidin-4-yl)amino]-cyclohexyl}-N-(pyridin-3-ylmethyl)-methanesulfonamide] are 622 nM, 76.1 nM and 6.85 nM.
`CN(c1ncnc2[nH]ccc12)[C@H]1CC[C@H](CS(=O)(=O)NCCc2cccc(Cl)c2)CC1` [Example 36, N-[2-(3-chlorophenyl)ethyl]-1-{trans-4-[methyl(7H-pyrrolo[2,3-d]pyrimidin-4-yl)amino]cyclohexyl}-methanesulfonamide]: the IC50 at JAK3 came to 294 nM; at JAK2 it was 41.4 nM; on JAK1, 7.7 nM.
For `CN(c1ncnc2[nH]ccc12)[C@H]1CC[C@H](CS(=O)(=O)N[C@H]2CC[C@H](C(C)(C)O)CC2)CC1` [Example 37, N-[trans-4-(1-hydroxy-1-methylethyl)cyclohexyl]-1-{trans-4-[methyl(7H-pyrrolo[2,3-d]pyrimidin-4-yl)amino]cyclohexyl}-methanesulfonamide] the same measures were 212 nM, 33.3 nM and 8.73 nM.
For `CC(C)c1ccc(CCNS(=O)(=O)C[C@H]2CC[C@H](N(C)c3ncnc4[nH]ccc34)CC2)c(F)c1` [Example 38, N-[2-(2-fluoro-4-isopropylphenyl)ethyl]-1-{trans-4-[methyl(7H-pyrrolo[2,3-d]pyrimidin-4-yl)amino]cyclohexyl}-methanesulfonamide] the same measures were 145 nM, 55.4 nM and 9.13 nM.
Take `CN(c1ncnc2[nH]ccc12)[C@H]1CC[C@H](CS(=O)(=O)NCC(O)c2ccc(F)c(F)c2)CC1` (stereo partly drawn) [Example 39, N-[2-(3,4-difluorophenyl)-2-hydroxyethyl]-1-{trans-4-[methyl(7H-pyrrolo[2,3-d]pyrimidin-4-yl)amino]-cyclohexyl}-methanesulfonamide]: the IC50 at JAK3 was 240 nM; on JAK2 it was 30.6 nM; on JAK1 it was 9.79 nM.
For `COc1ccccc1CCCNS(=O)(=O)C[C@H]1CC[C@H](N(C)c2ncnc3[nH]ccc23)CC1` [Example 40, N-[3-(2-methoxyphenyl)-propyl]-1-{trans-4-[methyl(7H-pyrrolo[2,3-d]-pyrimidin-4-yl)amino]-cyclohexyl}-methanesulfonamide] the same measures were 208 nM, 29.8 nM and 10.7 nM.
Regarding `CN(c1ncnc2[nH]ccc12)[C@H]1CC[C@H](CS(=O)(=O)NC2CC(NC(=O)OC(C)(C)C)C2)CC1` (stereo partly drawn) [Example 41, tert-butyl (3-{[({trans-4-[methyl(7H-pyrrolo[2,3-d]-pyrimidin-4-yl)amino]-cyclohexyl}methyl)sulfonyl]amino}cyclobutyl)-carbamate], the IC50 turned out to be 292 nM on JAK3, 123 nM at JAK2 and 11.6 nM on JAK1.
In the same order, the values of `CN(c1ncnc2[nH]ccc12)[C@H]1CC[C@H](CS(=O)(=O)NCCc2ccc(Cl)c(Cl)c2)CC1` [Example 42, N-[2-(3,4-dichlorophenyl)-ethyl]-1-{trans-4-[methyl-(7H-pyrrolo[2,3-d]pyrimidin-4-yl)amino]cyclohexyl}-methanesulfonamide] are 427 nM, 55.7 nM and 14.5 nM.
For `CN(Cc1cnccn1)S(=O)(=O)C[C@H]1CC[C@H](N(C)c2ncnc3[nH]ccc23)CC1` [Example 43, N-methyl-1-{trans-4-[methyl(7H-pyrrolo[2,3-d]-pyrimidin-4-yl)amino]-cyclohexyl}-N-(pyrazin-2-ylmethyl)-methanesulfonamide] the same measures were 517 nM, 53.2 nM and 14.9 nM.
